These results are taken from ChEMBL document CHEMBL1149228, “Analysis of structure-activity relationships for the 'B-region' of N-(3-acyloxy-2-benzylpropyl)-N(')-[4-(methylsulfonylamino)benzyl]thiourea analogues as vanilloid receptor antagonists: discovery of an N-hydroxythiourea analogue with potent analgesic activity” (Bioorg Med Chem Lett, 2004).

The target in test [1] is T1, Transient receptor potential cation channel subfamily V member 1 (Rattus norvegicus, UniProt O35433). The test can be described thus: In vitro antagonist effect against 50 nM capsaicin-induced 45 [Ca2+] influx in vanilloid receptor expressing CHO cells. Format: functional, cell-based.
The target of test [2] is T1, Transient receptor potential cation channel subfamily V member 1. Nature of the test: Agonist effect on 45 [Ca2+] influx in vanilloid receptor expressing CHO cells relative to maximal capsaicin (300 nM) response (ineffective). Format: functional, cell-based.
For test [3] the target is unchanged. Nature of the test: Agonist effect on 45 [Ca2+] influx in vanilloid receptor expressing CHO cells relative to maximal capsaicin (300 nM) response, weak effect at 30 µM.
Test [4] addresses Transient receptor potential cation channel subfamily V member 1 (Rattus norvegicus) (UniProt O35433). The test can be described thus: Agonist-induced 45 [Ca2+] influx relative to 300 nM capsaicin in vanilloid receptor expressing CHO cells.
Test [5] addresses T1, Transient receptor potential cation channel subfamily V member 1. The test can be described thus: Binding affinity towards rat vanilloid receptor subtype 1 expressed in CHO cells by [3H]RTX displacement. Format: cell-based.
Test [6] has as its target Transient receptor potential cation channel subfamily V member 1 (Rattus norvegicus) (UniProt O35433). The test can be described thus: Inhibition of […] nM capsaicin-induced 45 [Ca2+] influx in vanilloid receptor expressing CHO cells. Format: functional, cell-based.
For test [7], the target named is T1, Transient receptor potential cation channel subfamily V member 1. Nature of the test: In vitro antagonist effect against 50 nM capsaicin-induced 45 [Ca2+] influx in vanilloid receptor expressing CHO cells (ineffective). Format: functional, cell-based.
Test [8] has the same target. The test can be described thus: Agonist effect on 45 [Ca2+] influx in vanilloid receptor expressing CHO cells relative to maximal capsaicin (300 nM) response. In kind it is functional, cell-based.
In test [9] the target is Transient receptor potential cation channel subfamily V member 1 (Rattus norvegicus) (UniProt O35433). The test can be described thus: Inhibition of […] nM capsaicin-induced 45 [Ca2+] uptake in vanilloid receptor expressing CHO cells. In kind it is functional, cell-based.
Sequence of Transient receptor potential cation channel subfamily V member 1 (Rattus norvegicus) (O35433 whole entry): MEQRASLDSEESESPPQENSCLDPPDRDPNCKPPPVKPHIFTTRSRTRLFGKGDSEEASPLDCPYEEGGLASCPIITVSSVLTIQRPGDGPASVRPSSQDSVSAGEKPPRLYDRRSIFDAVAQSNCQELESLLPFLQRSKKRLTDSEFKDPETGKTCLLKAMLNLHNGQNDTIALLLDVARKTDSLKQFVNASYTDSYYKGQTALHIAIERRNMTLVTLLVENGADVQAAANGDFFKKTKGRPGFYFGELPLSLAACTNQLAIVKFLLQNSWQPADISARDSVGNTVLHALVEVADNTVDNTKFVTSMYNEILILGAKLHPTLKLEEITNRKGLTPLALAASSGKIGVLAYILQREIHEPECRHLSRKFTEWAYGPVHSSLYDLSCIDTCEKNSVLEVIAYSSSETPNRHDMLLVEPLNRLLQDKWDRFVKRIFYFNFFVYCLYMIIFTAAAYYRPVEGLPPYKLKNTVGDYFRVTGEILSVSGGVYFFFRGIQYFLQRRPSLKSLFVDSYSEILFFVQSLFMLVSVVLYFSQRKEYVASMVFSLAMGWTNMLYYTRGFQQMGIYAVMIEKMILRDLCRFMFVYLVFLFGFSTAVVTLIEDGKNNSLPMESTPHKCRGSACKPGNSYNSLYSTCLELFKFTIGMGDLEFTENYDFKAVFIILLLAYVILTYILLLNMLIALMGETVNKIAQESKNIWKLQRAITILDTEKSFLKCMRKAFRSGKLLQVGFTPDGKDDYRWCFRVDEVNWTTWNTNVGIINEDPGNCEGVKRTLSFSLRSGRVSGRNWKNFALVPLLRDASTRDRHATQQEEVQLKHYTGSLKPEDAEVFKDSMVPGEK

T1 sequence (O35433 whole entry): as above

Broadly, the IC50 is the midpoint of a concentration-inhibition curve. The low end stands for inhibition by little substance, the high end for a need for much substance. What is called EC50 is the concentration needed to bring the measured effect to its halfway point. With `Cc1ccc(CC(CNC(=S)NCc2ccc(NS(C)(=O)=O)c(F)c2)COC(=O)C(C)(C)C)cc1C` (centres undefined), the IC50 in [1] turned out to be 7.8 nM. In addition, in test [2], the EC50 result is “Not Active”.

Turning to `Cc1ccc(CC(COC(=O)C(C)(C)C)CN(O)/C(S)=N/Cc2ccc(NS(C)(=O)=O)c(F)c2)cc1C` (centres undefined), the EC50 entry in [2] is given as “Not Active”.

One may read the Ki as a measure of affinity in units of concentration, obtained from inhibition or displacement. A lower Ki goes with tighter binding. In the case of `CC(C)(C)C(=O)OCC(CNC(=S)NCc1ccc(NS(C)(=O)=O)c(F)c1)Cc1ccc(C(C)(C)C)cc1` (centres undefined), the half-maximal effective concentration (EC50) result in test [3] (cho) is on record as “Partially active”. The IC50 in [1] stood at 52 nM. In addition, in [4], the agonist efficacy came to 5%. Besides, the Ki in test [5] stood at 22.6 nM.

`Cc1ccc(CC(CNC(=O)Cc2ccc(NS(C)(=O)=O)cc2)COC(=O)C(C)(C)C)cc1C` (centres undefined): in test [3] (cho), the EC50 entry is “Partially active”. Half-maximal inhibition in test [1] (IC50) was put at 460 nM. This molecule also registered an agonist efficacy in test [4] of 5.6%. The molecule further gave a Ki in [5] of 500 nM.

`Cc1ccc(CC(CN/C(S)=N/Cc2ccc(NS(C)(=O)=O)cc2)COC(=O)C(C)(C)C)cc1C` (centres undefined): the EC50 entry in [3] (cho) is “Partially active”. In test [1], this molecule returned an IC50 of 67 nM.

As for `Cc1ccc(CC(COC(=O)Cc2ccc(NS(C)(=O)=O)cc2)COC(=O)C(C)(C)C)cc1C` (centres undefined), in [1], half-maximal inhibition (IC50) was put at 3600 nM. This molecule also showed an inhibitory constant (Ki) in test [5] of 1980 nM. Besides, the EC50 result in [2] is reported as “Not Active”.

In general, inhibition refers to the relative decrease from the control value, in per cent. A higher inhibition goes with a response far below the control. For the molecule `Cc1ccc(CC(CNC(=O)Cc2ccc(NS(C)(=O)=O)c(F)c2)COC(=O)C(C)(C)C)cc1C` (centres undefined), the EC50 result in [3] (cho) is given as “Partially active”. In [4], the agonist efficacy turned out to be 10%. This molecule returned an inhibition in test [6] of 65%.

With `Cc1ccc(CC(COC(=O)C(C)(C)C)CN(O)/C(S)=N/Cc2ccc(NS(C)(=O)=O)cc2)cc1C` (centres undefined), the EC50 entry in [3] (cho) was “Partially active”. This molecule yielded an agonist efficacy in [4] of 12%.

Regarding `Cc1ccc(CC(CNC(=S)N(O)Cc2ccc(NS(C)(=O)=O)cc2)COC(=O)C(C)(C)C)cc1C` (centres undefined), the EC50 entry in test [3] (cho) is reported as “Partially active”. Also, in test [1], it took 331 nM to reach half-maximal inhibition (IC50). Moreover, the agonist efficacy in test [4] worked out at 12%.

With `CC(C)(C)C(=O)OCC(CNC(=O)Cc1ccc(NS(C)(=O)=O)c(F)c1)Cc1ccc(C(C)(C)C)cc1` (centres undefined), the EC50 entry in test [3] (cho) is listed as “Partially active”. The same molecule yielded an IC50 in [1] of 440 nM. Further, in test [4], the agonist efficacy is 7%. In [5], this molecule displayed a Ki of 74 nM. In test [6], this molecule gave an inhibition of 56%.

On to `CC(C)(C)C(=O)OCC(Cc1ccc(C(C)(C)C)cc1)CN(O)/C(S)=N/Cc1ccc(NS(C)(=O)=O)c(F)c1` (centres undefined), for which the EC50 result in test [3] (cho) is “Partially active”. The IC50 in [1] was 10100 nM. In test [4], this molecule registered an agonist efficacy of 13%. The molecule further yielded an inhibition constant (Ki) in test [5] of 405 nM.

Consider `Cc1ccc(CC(COC(=O)C(C)(C)C)CN(O)/C(S)=N/Cc2ccc(NS(C)(=O)=O)cc2Cl)cc1C` (centres undefined), for which the IC50 in test [1] stood at 757 nM. This molecule also displayed a Ki in test [5] of 220 nM. Further, the EC50 result in test [2] is recorded as “Not Active”.

Take `COc1cc(C/N=C(\S)NCC(COC(=O)C(C)(C)C)Cc2ccc(C)c(C)c2)ccc1NS(C)(=O)=O` (centres undefined): the IC50 result in test [7] is on record as “Not Active”.

Regarding `Cc1ccc(CC(COC(=O)C(C)(C)C)CN(O)/C(S)=N/Cc2ccc(NS(C)(=O)=O)cc2F)cc1C` (centres undefined), the EC50 entry in test [3] (cho) is on record as “Partially active”. Also, the IC50 result in [7] is on record as “Not Active”.

For `COc1cc(CO/C(S)=N/CC(COC(=O)C(C)(C)C)Cc2ccc(C)c(C)c2)ccc1NS(C)(=O)=O` (centres undefined), the EC50 in [3] (read-out: EC50) was found to be 373 nM. Also, in test [5], the Ki came to 199 nM. The IC50 result in [7] was “Not Active”.

In [5], `COc1cc(CC(=O)NCC(COC(=O)C(C)(C)C)Cc2ccc(C)c(C)c2)ccc1NS(C)(=O)=O` (centres undefined) came in with a Ki of 430 nM. In addition, the 50% inhibitory concentration (IC50) entry in test [7] was “Not Active”. The molecule further had an EC50 in [8] of 244 nM.

Turning to `Cc1ccc(CC(CNC(=S)OCc2ccc(NS(C)(=O)=O)c(F)c2)COC(=O)C(C)(C)C)cc1C` (centres undefined), the 50% effective concentration (EC50) entry in test [3] (cho) is reported as “Partially active”. Further, half-maximal inhibition in test [1] (IC50) required 170 nM. In addition, in [4], the agonist efficacy was found to be 7.5%. In test [5], affinity was put at a Ki of 210 nM.

Regarding `Cc1ccc(CC(CNC(=S)N(O)Cc2ccc(NS(C)(=O)=O)c(F)c2)COC(=O)C(C)(C)C)cc1C` (centres undefined), the EC50 result in test [3] (cho) is given as “Partially active”. For the same molecule, in [7], the IC50 result is on record as “Not Active”.

In test [5], `COc1cc(C/N=C(\S)N(O)CC(COC(=O)C(C)(C)C)Cc2ccc(C)c(C)c2)ccc1NS(C)(=O)=O` (centres undefined) showed a Ki of 396 nM. In addition, the IC50 entry in [7] is on record as “Not Active”. This molecule also gave an EC50 in test [8] of 809 nM.

On to `Cc1ccc(CC(CNC(=S)OCc2ccc(NS(C)(=O)=O)cc2)COC(=O)C(C)(C)C)cc1C` (centres undefined), for which the EC50 result in [3] (cho) is reported as “Partially active”. This molecule registered an inhibition in test [9] of 79%. The molecule also gave a 50% inhibitory concentration (IC50) in test [1] of 440 nM. The molecule also displayed an agonist efficacy in [4] of 11%. The molecule further gave an inhibitory constant (Ki) in test [5] of 336 nM.
